Results published in patent US9956199B2, “Chromane-like cyclic prenylflavonoids for the medical intervention in neurological disorders” (priority 2011, dated 2018).
Entries after “also recorded” stand apart in the source; their conditions may differ.

Assays:
MEF E16 cells = assay: immunocytochemical staining for DCX and Map2ab in MEF cultures (neuronal differentiation); assay type: cell-based, mouse; conditions: 7 days; for number of DCX positive cells / number of DCX/Map2ab double positive cells: Neurobasal plus 1% FCS, 10 μM; for number of DCX positive cells: FIG. 3A; for number of DCX/Map2ab double positive cells: FIG. 3B
Description: Following the results from the Luciferase assay described in Example 17, the inventors examined the ability of compounds according to the invention and reference compounds to promote differentiation of MEF E16 cells, using immunocytochemical staining with DCX and Map2ab antibodies.
Compound 1a at 10 and 100 μM was analyzed for its effect on the expression of the neuronal specific markers DCX and Map2ab using primary fetal mouse brain derived cells stimulated in DMEM-KO media.
Mouse embryonic day 16 forebrain cells were prepared as described in Example 17. Before seeding the cells, glass-coverslips were coated and prepared. Glass-coverslips (13 mm) (Menzel GmbH, Braunschweig, Germany) were incubated in 1 M HCl at 65° C. overnight and stored in isopropanol until further use. Coverslips were put into 24-well test plates and air-dried. Subsequently coverslips were incubated for 1 h with 100 μg/ml Poly-L-ornithin solution at 37° C. After washing three times with sterile water coverslips were incubated with 5 μg/ml Laminin solution for 2 h. Immediately after removal of the Laminin solution cells were seeded (40.000 cells/well) in DMEM-KO plus supplement or in NB-B27 plus 1% FCS medium. One day later, cells had attached to the substrate. Cells were stimulated with the above-mentioned substances (in DMEM-KO plus supplement medium: 10 μM and 100 μM; in NB-B27 plus 1% FCS medium: 10 μM) for 3 or 7 days. In the 7 day group, medium including the substances was replaced after three days. Cultures were maintained at 37° C. in a humidified incubator with 5% CO2.
Cells were fixed with phosphate-buffered 4% paraformaldehyde (Sigma-Aldrich, Taufkirchen, Germany). […] The specimens were incubated overnight at 4° C. with the primary antibodies at the following dilutions in FSGB: rabbit anti Doublecortin (DCX) 1:500 (NEB, Frankfurt, Germany) and mouse anti-Map 2a+2b 1:400 (Sigma-Aldrich, Taufkirchen, Germany). After washing three times with FSGB, cells were incubated with the species-specific secondary antibodies, which were conjugated to fluorochromes, for 2 hours in the dark at room temperature. To remove unbound secondary antibodies, cells were washed again with PBS. Nuclear counterstaining was performed with 4′,6′-diamidino-2-phenylindole dihydrochloride hydrate (DAPI) at […] (Sigma Aldrich, Taufkirchen, Germany). Finally, cells were washed again three times with PBS and mounted on microscope slides using Prolong Antifade reagent (Invitrogen, Oreg., USA).
The immunostainings were examined using Olympus IX81 inverted research microscope and the software Volocity 5.3.1. To quantify the number of cells, five indiscriminately chosen visual fields per coverslip were selected under a focus of 40 times. The total number of cells (DAPI positive cells), the number of DCX positive, Map2ab positive, and DCX/Map2ab double positive cells was determined.

[1] = tested on: mouse embryonic day 16 forebrain (MEF) cells; assay: normalized renilla luciferase activity (cell survival / relative cytotoxicity); assay type: cell-based; conditions: three days, FIG. 1D
Description: Luciferase assays were performed using a noncommercial dual luciferase enzyme assay system (Dyer et al., 2000, Anal Biochem). In this system, a co-transfection with pDCX-Luci and a control vector driving Renilla-luciferase under the CMV promoter was performed. The two different luciferases have different specific substrates and, therefore, the DCX regulatory region driven firefly luciferase activity can be distinguished from CMV driven Renilla-luciferase. For analysis, the firefly luciferase activity was normalized against the CMV driven Renilla-luciferase. […]
Elmer, Calif., USA) according to the manufacturer's instructions. Then, 100 μl of freshly prepared Renilla assay solution consisting of 1.1 M NaCl (VWR, Vienna, Austria), 2.2 mM Na2EDTA, 0.22 M KH2PO4 pH 5.1 (Merck, Darmstadt, Germany), 0.44 mg/mL BSA (Biomol, Hamburg, Germany), 1.3 mM NaN3 (Sigma-Aldrich, Taufkirchen, Germany), […] coelenterazine (p.j.k., Kleinblittersdorf, Germany) per well were added and measurements were performed using the Victor™ X Multilable Plate Reader as described above. Data were normalized the following way: i) firefly (FF) luciferase activity is related to the renilla (R) luciferase activity; and ii) the FF/R values of the individual samples are related to the FF/R value obtained by stimulation with the control medium and expressed as x-fold change compared to control. […]

Compound | expression of the neuronal specific markers DCX and Map2ab (percentage of positive cells) (MEF E16 cells; DMEM-KO medium, 10 and 100 μM, FIG. 2) | number of DCX positive cells (MEF E16 cells) | number of DCX/Map2ab double positive cells (MEF E16 cells) | normalized renilla activity (approximate measure of cell survival / relative cytotoxicity) [1]
COc1cc2c(c(O)c1C(=O)/C=C/c1ccc(O)cc1)C=CC(C)(C)O2 [Compound 1a, (E)-1-(5-hydroxy-7-methoxy-2,2-dimethyl-2H-chromen-6-yl)-3-(4-hydroxyphenyl)prop-2-en-1-one] | elevated number of DCX positive and of MAP2ab positive cells; also recorded: enhances the expression of the neuronal specific markers DCX and Map2ab | most vigorous effect | highest number of DCX and Map2ab double positive cells | significantly higher than that exerted by the reference compounds xanthohumol and osajin
COc1cc2c(c(O)c1C(=O)/C=C/c1ccc(O)cc1)CCC(C)(C)O2 [Compound 1b, (E)-1-(5-hydroxy-7-methoxy-2,2-dimethylchroman-6-yl)-3-(4-hydroxyphenyl)prop-2-en-1-one] |  | strongly enhanced the number of DCX positive cells | highest number of DCX and Map2ab double positive cells | significantly higher than that exerted by the reference compounds xanthohumol and osajin
